Laboratory results as given in ChEMBL document CHEMBL3137381, “MMV Box Onchocerca lienalis screening set”.

How the values were obtained:
Format in all cases: functional
Onchocerca lienalis [1] = test: MMV: Percent motility assay at a compound concentration of 1.25e-5 M. Activity score legend: 3: Active, 2: Moderately active; 1: Inactive, 0: Toxic; conditions: at 12.5 µM
Onchocerca lienalis [2] = test: MMV: Percent motility assay at a compound concentration of 1.9e-7 M. Activity score legend: 3: Active, 2: Moderately active; 1: Inactive, 0: Toxic; conditions: at 0.19 µM
Onchocerca lienalis [3] = test: MMV: Percent motility assay at a compound concentration of 3.1e-6 M. Activity score legend: 3: Active, 2: Moderately active; 1: Inactive, 0: Toxic; conditions: at 3.1 µM
Onchocerca lienalis [4] = test: MMV: Percent motility assay at a compound concentration of 7.8e-7 M. Activity score legend: 3: Active, 2: Moderately active; 1: Inactive, 0: Toxic; conditions: at 0.78 µM

| SMILES | Motility (Onchocerca lienalis [1]) | Motility (Onchocerca lienalis [2]) | Motility (Onchocerca lienalis [3]) | Motility (Onchocerca lienalis [4]) |
| --- | --- | --- | --- | --- |
| COc1ccc(-c2cc3c(nn2)-c2ccccc2C3=O)cc1 | 100% | 100% | 100% | 100% |
| c1ccc(/C2=N/c3ccccc3/N=C(/c3ccccc3)c3ccccc32)cc1 | 100% | 100% | 100% | 100% |
| COc1ccc(C2c3ccc4ccccc4c3Oc3ncn(CCCn4ccnc4)c(=N)c32)cc1OC (configuration not stated) | 100% | 100% | 100% | 100% |
| CN(N=O)C1=C(NC2CCCCC2)C(=O)c2ccccc2C1=O | 100% | 100% | 100% | 100% |
| COc1ccc(CN2CCCC(C(=O)c3ccc(C(F)(F)F)cc3)C2)c(O)c1 (configuration not stated) | 100% | 100% | 100% | 100% |
| O=C(NC1CCCCC1)C(c1cccs1)N(CCc1ccccc1)C(=O)c1ccco1 (configuration not stated) | 100% | 100% | 100% | 100% |
| CC(Oc1ccc(NC(=O)c2cccs2)cc1)C(=O)c1ccc(Cl)cc1 (configuration not stated) | 100% | 100% | 100% | 100% |
| Cl.c1ccc2c(NCCCCCCNc3c4c(nc5ccccc35)CCCC4)c3c(nc2c1)CCCC3 | 100% | 100% | 100% | 100% |
| Brc1ccc(Nc2nc3ccccc3nc2Nc2ccc(Br)cc2)cc1 | 100% | 100% | 100% | 100% |
| O=C(NC1CCN(Cc2ccccc2)CC1)c1cc(C(=O)NC2CCN(Cc3ccccc3)CC2)cc(C(=O)NC2CCN(Cc3ccccc3)CC2)c1 | 100% | 100% | 100% | 100% |
| Nc1ccc(-c2nc3cc(Cc4ccc5[nH]c(-c6ccc(N)cc6)nc5c4)ccc3[nH]2)cc1 | 0% | 100% | 66.66% | 100% |
| COc1ccc(-c2cn3c(C(=O)Nc4ccccc4Cl)c(-c4ccccc4)c4c3n2CCCC4)cc1 | 66.66% | 100% | 100% | 100% |
| Cc1cc(Nc2ccc(OCc3ccccc3)cc2)nc2cc(O)ccc12 | 66.66% | 100% | 100% | 100% |
| CCN(CC)CCNc1ccnc2cc3ccccc3cc12.O=P(O)(O)O | 100% | 100% | 100% | 100% |
| N=c1c2ccccc2nnn1-c1cccc(C(F)(F)F)c1 | 100% | 100% | 100% | 100% |
| COc1cc(-c2nc(-c3ccc(Sc4ccccc4)cc3)c(-c3ccccc3)[nH]2)cc(OC)c1O | 100% | 100% | 100% | 100% |
| COc1ccc(C2NCCc3c2[nH]c2ccccc32)cc1CN1CCN(c2ccc(F)cc2)CC1.Cl (configuration not stated) | 100% | 100% | 100% | 100% |
| OC(Cn1nnc2ccccc21)Cn1c2ccc(Br)cc2c2cc(Br)ccc21 (configuration not stated) | 100% | 100% | 100% | 100% |
| Cc1ccc(C)c(Cn2c(N3CCC(C(=O)NCc4cccs4)CC3)nc3ccccc32)c1 | 100% | 100% | 100% | 100% |

| SMILES | Motility (Onchocerca lienalis [1]) | Motility (Onchocerca lienalis [2]) | Motility (Onchocerca lienalis [3]) | Motility (Onchocerca lienalis [4]) |
| --- | --- | --- | --- | --- |
| Cc1ccccc1OCCSc1nc2ccc(NC(=O)c3cccs3)cc2s1 | 100% | 100% | 100% | 100% |
| CCOc1cc2c(cc1OCC)C(c1cc(Cl)ccc1O)NCC2 (configuration not stated) | 100% | 100% | 100% | 100% |
| CCN(CC)CCCNc1ccnc2cc3ccccc3cc12 | 100% | 100% | 100% | 100% |
| O=C(Nc1ccc(-c2nc3cc4ccccc4cc3[nH]2)cc1)c1cccc(Br)c1 | 100% | 100% | 100% | 100% |
| Cc1ccc(-c2nc3ccccc3o2)cc1NCc1cc(Cc2ccccc2)ccc1O | 100% | 100% | 100% | 100% |
| COc1ccc(C(O)(CCC(C)C)C(CN2CCOCC2)c2ccc(Cl)cc2)cc1.Cl (configuration not stated) | 100% | 100% | 100% | 100% |
| CCCOCc1cc(CN2CCN(c3cccc(Cl)c3)CC2)c(O)c2ncccc12 | 100% | 100% | 100% | 100% |
| O=C(Cc1ccccc1)NC(c1ccc(Cl)cc1)c1c(O)ccc2ccccc12 (configuration not stated) | 100% | 100% | 100% | 100% |
| COc1ccc(C(=O)NC(c2ccccc2Cl)c2cc(Cl)c3cccnc3c2O)cc1 (configuration not stated) | 100% | 100% | 100% | 100% |
| Cc1cccc(N2C(=O)C3C(C2=O)C2(c4ccccc4)C(=O)C3(c3ccccc3)C(c3ccc4c(c3)OCO4)=C2c2ccc3c(c2)OCO3)c1 (configuration not stated) | 100% | 100% | 100% | 100% |
| Cc1ccc(F)cc1NC(=O)c1cc(Cl)ccc1Nc1ccccc1 | 100% | 100% | 100% | 100% |
| CCCCCCc1cc2cc(-c3nc4ccccc4[nH]3)c(=Nc3ccccc3C)oc2cc1O | 100% | 100% | 100% | 100% |
| CCCCCCC(O)(c1ccc(F)cc1)C(CN1CCOCC1)c1ccccc1.Cl (configuration not stated) | 100% | 100% | 100% | 100% |
| COc1cc(OC)cc(N2C(=O)N(Cc3ccc(C(C)(C)C)cc3)c3ccccc3S2(=O)=O)c1 | 33.33% | 100% | 100% | 100% |
| CCOc1c(Br)cc(C2C(C(=O)OC)=CN(C)C=C2C(=O)OC)cc1OC | 100% | 100% | 100% | 100% |
| CC1CC2=C(CC1CNCCCN(C)C)C(C)(C)CCC2 (configuration not stated) | 100% | 100% | 100% | 100% |
| CN(C)c1ccc(N=Cc2ccc(N3CCOCC3)cc2)cc1 | 93.33% | 100% | 100% | 100% |
| CCOC(=O)c1c[nH]c2c(CC)cccc2c1=O | 100% | 100% | 100% | 100% |
| CCCCc1c(CCC)c(=N)c2ccccc2n1C.I | 100% | 100% | 100% | 100% |
